Experiments:
[1] = tested for use as a possible sedative; cited from earlier work
Candida albicans = experiment: Hard surface carrier disinfection test (AOAC 991.47), colony count; format: cell-based; details: for Colonies Of Candida Albicans Observed: carrier 15 min in culture; for Effect on the fungus: 25% loading, summary of Examples 1-15
Method: The compositions are evaluated according to an approved surface carrier disinfection test (Official Methods of Analysis of the Association of Official Analytical Chemists protocol 991.47: Hard surface carrier test method). Cultures of Candida albicans are grown for 24 hours at room temperature in trypsin soy broth to a density of approximately McFarland standard #10. Sterile glass cylinders (Belco Cat. #2090-[…]) serve as carriers. The carriers are coated with the test composition or the control composition and subsequently submerged in 5 ml of the stock culture and allowed to remain there for 15 minutes. The carriers are aseptically transferred to sterile, dry Whatman #1 filter paper, and excess droplets of the inoculation medium are removed. The carriers are dried at 37° C. for 40 minutes and then aseptically transferred to 5 ml of trypsin soy broth. They are then sonicated for 10 minutes in as water bath at 25° C. Tubes containing the sonicated carriers are vortexed, and a portion of the medium is placed onto trypsin soy agar plates, and incubated overnight at 37° C. Microbial growth is assessed by counting colonies.

Structure (SMILES)	Toxicity [1]	Colonies Of Candida Albicans Observed (Candida albicans; 0.1 wt. % in mineral oil)	Colonies Of Candida Albicans Observed (Candida albicans; 1.0 wt. % in mineral oil)	Colonies Of Candida Albicans Observed (Candida albicans; 10 wt. % in mineral oil)	Effect on the fungus (Candida albicans)	Colonies Of Candida Albicans Observed (Candida albicans; 25 wt. % in mineral oil)	Colonies Of Candida Albicans Observed (Candida albicans; 50 wt. % in mineral oil)	Colonies Of Candida Albicans Observed (Candida albicans; 75 wt. % in mineral oil)
CCCC1(C)COB(c2ccc(C)cc2)OC1 [I.S. 813, 2-(p-tolyl)-(5-methyl, 5-propyl)-1,3,2,-dioxiborinane]	very low	–	–	–	–	–	–	–
CC1CCOB(OCCC(C)OB2OCCC(C)O2)O1 (stereo not drawn) [compound S1, 2,2′-(1-methyltrimethylenedioxy) bis-(4-methyl-1,3,2-dioxaborinane)]	–	8	2	0	completely destroys the fungus	0	0	0
CC1CC(C)(C)OB(OB2OC(C)CC(C)(C)O2)O1 (stereo not drawn) [compound S2, 2,2′-oxybis (4,4,6-trimethyl-1,3,2-dioxaborinane)]	–	11	1	0	completely destroys the fungus	0	0	0
